Results: the supplement of paper PMC10307832

Key:
Experiment in all cases: relative viability (nuclei count vs DMSO), 5 days (fraction); higher = more cells survive
[1] = compound: CC(C)(C)c1nc(-c2cccc(NS(=O)(=O)c3c(F)cccc3F)c2F)c(-c2ccnc(N)n2)s1 [Dabrafenib]
Outline: (§1)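 Lung cancer cell lines in 1536-well plates were kept overnight at 37 °C, then pinned with five library-drug doses (not always all listed) spaced by √10 on vehicle-anchored plates. After 5 days without medium change, cells were fixed, permeabilised and Hoechst-stained in one step, imaged at 4×, and nuclei were counted with MetaXpress. Viability is treated-well nuclei divided by vehicle-well nuclei, taken as the median over plates. Plates passed only with control CV below 25% and at least one doubling.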

[2] = compound: NC(=O)c1ccc(N(C(N)=O)c2c(F)cccc2F)nc1-c1ccc(F)cc1F [VX-702]
Outline: as §1

[3] = compound: CC(C)(C)c1nc(-c2cccc(NS(=O)(=O)c3c(F)cccc3F)c2F)c(-c2ccnc(N)n2)s1 [Dabrafenib] + COc1cc2c(Oc3ccc(NC(=O)C4(C(=O)Nc5ccc(F)cc5)CC4)cc3F)ccnc2cc1OCCCN1CCOCC1 [Foretinib] (partner 0.25 µM)
Outline: (§2)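 Relative viability was taken as the ratio of nuclei in treated wells to nuclei in vehicle wells. Lung cancer cell lines in 1536-well plates received compounds by pin tool one day after seeding, either one drug alone or a fixed anchor-drug dose plus five library-drug doses (not always all listed) in √10 steps. Nuclei were counted on 4× images after 5 days of treatment, and values are medians of duplicate plates.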

[4] = compound: NC(=O)c1ccc(N(C(N)=O)c2c(F)cccc2F)nc1-c1ccc(F)cc1F [VX-702] + CCNC(=O)c1noc(-c2cc(C(C)C)c(O)cc2O)c1-c1ccc(CN2CCOCC2)cc1 [Luminespib] (partner 0.01 µM)
Outline: as §2

[5] = compound: NC(=O)c1ccc(N(C(N)=O)c2c(F)cccc2F)nc1-c1ccc(F)cc1F [VX-702] + COc1cc2c(Oc3ccc(NC(=O)C4(C(=O)Nc5ccc(F)cc5)CC4)cc3F)ccnc2cc1OCCCN1CCOCC1 [Foretinib] (partner 0.25 µM)
Outline: as §2

In the case of SW 900, the relative viability ([1]; 0.009487 µM) is reported as 0.84, the relative viability ([1]; 0.03 µM) is reported as 0.589 and the relative viability ([1]; 0.09487 µM) is reported as 0.665. It also gave a relative viability ([1]; 0.3 µM) of 1.02, a relative viability ([2]; 0.02 µM) of 0.885 and a relative viability ([2]; 0.2 µM) of 0.82. The relative viability ([2]; 0.6325 µM) was 0.775, the relative viability ([2]; 2 µM) was 1.02 and the relative viability ([3]; first compound 0.009487 µM) was 0.905. The relative viability ([3]; first compound 0.03 µM) was 0.788, the relative viability ([3]; first compound 0.3 µM) was 0.856 and the relative viability ([4]; first compound 0.02 µM) was 0.202. The relative viability ([4]; first compound 0.2 µM) was 0.188, the relative viability ([4]; first compound 0.6325 µM) was 0.15 and the relative viability ([4]; first compound 2 µM) was 0.16. For the same cell line, the relative viability ([5]; first compound 0.02 µM) was 0.726, the relative viability ([5]; first compound 0.2 µM) was 1.02 and the relative viability ([5]; first compound 0.6325 µM) was 0.9. The relative viability ([5]; first compound 2 µM) was 0.958.
